The inhibition is the drop in the measured response relative to a control, in per cent. Broadly, the Ki is the equilibrium dissociation constant of an inhibitor or competing ligand from its target. A lower Ki goes with tighter binding.

Structures are written as SMILES.

One experiment has as its target hA1AR (Homo sapiens (Human), UniProt P30542). Nature of the experiment: Radioligand binding at hA1AR, CHO cell membranes, [3H]R-PIA. Conditions: for inhibition at 10 µM: read-out: hA1AR % inhibition; for hA1AR % inhibition: inhibition of binding at 10 μM.
Another experiment has as its target hA3AR (Homo sapiens (Human), UniProt P0DMS8). Description: Radioligand binding at hA3AR, CHO cell membranes, [125I]I-AB-MECA.
Experiment [1] relates to chronic constriction injury model of neuropathic pain. Description: CCI model of neuropathic pain, reversal of mechano-allodynia. Conditions: for Time of peak protection / Max. effect Emax (% ± SEM) / Effect at 3 h (% ± SEM): 3 μmol/kg p.o., mice; for Time of peak protection / Max. effect Emax (% ± SEM): ipsilateral hind paw; for Efficacy in reversing NP in vivo (of full reversal at peak effect): CCI model. In kind it is in vivo, mice.

The target in another experiment is hA2AAR (Homo sapiens (Human), UniProt P29274). Nature of the experiment: Radioligand binding at hA2AAR, HEK293 cell membranes, [3H]CGS21680. Conditions: for inhibition at 10 µM: read-out: hA2AAR % inhibition; for hA2AAR % inhibition: inhibition of binding at 10 μM.
Chain of hA2AAR (P29274 whole entry): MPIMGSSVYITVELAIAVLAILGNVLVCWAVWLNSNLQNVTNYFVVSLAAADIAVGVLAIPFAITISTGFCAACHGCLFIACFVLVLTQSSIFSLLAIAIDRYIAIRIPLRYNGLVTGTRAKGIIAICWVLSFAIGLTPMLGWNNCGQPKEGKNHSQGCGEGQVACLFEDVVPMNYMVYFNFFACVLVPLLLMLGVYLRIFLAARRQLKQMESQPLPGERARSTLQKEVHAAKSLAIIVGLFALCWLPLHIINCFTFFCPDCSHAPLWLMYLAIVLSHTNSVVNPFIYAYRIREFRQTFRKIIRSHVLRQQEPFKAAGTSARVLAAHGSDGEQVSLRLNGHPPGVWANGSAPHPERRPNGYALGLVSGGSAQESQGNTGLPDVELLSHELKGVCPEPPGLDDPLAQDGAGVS

Chain of hA1AR (P30542 whole entry): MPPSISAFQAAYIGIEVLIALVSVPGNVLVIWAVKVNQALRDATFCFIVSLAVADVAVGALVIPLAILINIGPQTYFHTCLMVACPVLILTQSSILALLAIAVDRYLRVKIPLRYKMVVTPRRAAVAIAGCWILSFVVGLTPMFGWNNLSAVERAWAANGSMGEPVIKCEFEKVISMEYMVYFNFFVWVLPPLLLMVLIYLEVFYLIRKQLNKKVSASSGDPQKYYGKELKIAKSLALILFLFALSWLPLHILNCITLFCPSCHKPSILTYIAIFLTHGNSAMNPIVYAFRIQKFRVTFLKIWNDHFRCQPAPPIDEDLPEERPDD
Chain of hA3AR (P0DMS8 whole entry): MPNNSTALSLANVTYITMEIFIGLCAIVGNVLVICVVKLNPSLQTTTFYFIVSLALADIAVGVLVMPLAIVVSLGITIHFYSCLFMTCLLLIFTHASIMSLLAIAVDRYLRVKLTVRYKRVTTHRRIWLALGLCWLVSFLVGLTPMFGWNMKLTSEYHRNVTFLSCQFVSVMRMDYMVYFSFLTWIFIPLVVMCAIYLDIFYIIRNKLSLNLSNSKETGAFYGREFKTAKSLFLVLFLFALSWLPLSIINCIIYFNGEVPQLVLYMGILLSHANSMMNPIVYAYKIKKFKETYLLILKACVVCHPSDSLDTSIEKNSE

On to `CNC(=O)[C@@]12C[C@@H]1[C@@H](n1cnc3c(NC)nc(C#Cc4ccc(OC)cc4)nc31)[C@H](O)[C@@H]2O` [Compound 11, (1S,2R,3S,4R,5S)-2,3-Dihydroxy-4-(2-((4-methoxyphenyl)ethynyl)-6-(methylamino)-9H-purin-9-yl)-N-methylbicyclo[3.1.0]hexane-1-carboxamide], for which the inhibition at 10 µM is 10% on hA1AR and 24 ± 8% on hA2AAR. This molecule yielded a Ki at hA3AR of 0.63 ± 0.07 nM. In addition, the “Time of peak protection” value in experiment [1] lay within 0.5 to 1 h.
In the same order, the values of `CNC(=O)[C@@]12C[C@@H]1[C@@H](n1cnc3c(NC)nc(C#Cc4cccc(OC)c4)nc31)[C@H](O)[C@@H]2O` [Compound 12, (1S,2R,3S,4R,5S)-2,3-Dihydroxy-4-(2-((3-methoxyphenyl)ethynyl)-6-(methylamino)-9H-purin-9-yl)-N-methylbicyclo[3.1.0]hexane-1-carboxamide] are 8 ± 4%, 26 ± 5%, 0.91 ± 0.07 nM and 0.5 to 2 h.
For `CNC(=O)[C@@]12C[C@@H]1[C@@H](n1cnc3c(NC)nc(C#Cc4ccccc4OC)nc31)[C@H](O)[C@@H]2O` [Compound 13, (1S,2R,3S,4R,5S)-2,3-Dihydroxy-4-(2-((2-methoxyphenyl)ethynyl)-6-(methylamino)-9H-purin-9-yl)-N-methylbicyclo[3.1.0]hexane-1-carboxamide], the inhibition at 10 µM on hA1AR was 12%. The inhibitory constant (Ki) on hA3AR is 0.77 ± 0.17 nM. In experiment [1], the “Max. effect Emax (% ± SEM)” value amounted to 64.3 ± 10.7%, the “Time of peak protection” value is reported as 1 h and the “Efficacy in reversing NP in vivo (of full reversal at peak effect)” value was ~70%. The inhibition at 10 µM on hA2AAR is 20 ± 7%.
Consider `CNC(=O)[C@@]12C[C@@H]1[C@@H](n1cnc3c(NC)nc(C#Cc4ccsc4)nc31)[C@H](O)[C@@H]2O` [Compound 16, (1 S,2R,3S,4R,5S)-2,3-Dihydroxy-N-methyl-4-(6-(methylamino)-2-(thiophen-3-ylethynyl)-9H-purin-9-yl)bicyclo[3.1.0]hexane-1-carboxamide], for which the inhibition at 10 µM on hA1AR was 11%. The same molecule yielded a Ki on hA3AR of 0.52 ± 0.04 nM. Besides, in experiment [1], the “Time of peak protection” value was in the range of 0.5 to 1 h and the “Efficacy in reversing NP in vivo (of full reversal at peak effect)” value is on record as “diminished”. The inhibition at 10 µM at hA2AAR worked out at 3 ± 2%.
In the case of `CCc1ccc(C#Cc2nc(NC)c3ncn([C@H]4[C@H](O)[C@H](O)[C@]5(C(=O)NC)C[C@H]45)c3n2)o1` [Compound 34, (1S,2R,3S,4R,5S)-4-(2-((5-Ethylfuran-2-yl)ethynyl)-6-(methylamino)-9H-purin-9-yl)-2,3-dihydroxy-N-methylbicyclo[3.1.0]hexane-1-carboxamide], the inhibition at 10 µM came out at 18% on hA1AR and 4 ± 4% at hA2AAR. On hA3AR, the affinity, expressed as Ki, was 1.5 ± 0.28 nM. Moreover, in experiment [1], the “Time of peak protection” value turned out to be 1 h.
For `CNC(=O)[C@]12CC1[C@@H](n1cnc3c(NC)nc(-n4cc(-c5ccccn5)nn4)nc31)[C@H](O)C2O` (some centres unmarked) [Compound 103], the hA1AR % inhibition on hA1AR was 29 ± 7%. This molecule yielded a Ki at hA3AR of 1.84 ± 0.38 nM. In addition, in experiment [1], the “Effect at 3 h (% ± SEM)” value is 22 ± 7%, the “Max. effect Emax (% ± SEM)” value is recorded as 55 ± 6% and the “Time of peak protection” value was 1 h. On hA2AAR, this molecule came in with a hA2AAR % inhibition of 26 ± 2%.
On hA1AR, `CNC(=O)[C@]12CC1[C@@H](n1cnc3c(NC)nc(-n4cc(-c5ncccn5)nn4)nc31)[C@H](O)C2O` (some centres unmarked) [Compound 104] returned a hA1AR % inhibition of 14 ± 7%. For the same molecule, the Ki on hA3AR was found to be 3.48 ± 0.97 nM. Further, in experiment [1], the “Effect at 3 h (% ± SEM)” value was found to be 39 ± 10%, the “Max. effect Emax (% ± SEM)” value was determined as 89 ± 11% and the “Time of peak protection” value came to 1 h. In addition, at hA2AAR, the hA2AAR % inhibition was determined as 27 ± 3%.
In the case of `CNC(=O)[C@]12CC1[C@@H](n1cnc3c(NC)nc(-n4cc(-c5cnccn5)nn4)nc31)[C@H](O)C2O` (some centres unmarked) [Compound 105], the hA1AR % inhibition at hA1AR is on record as 25 ± 10%. At hA3AR, this molecule registered a Ki of 2.21 ± 0.34 nM. Moreover, in experiment [1], the “Effect at 3 h (% ± SEM)” value is recorded as 22 ± 7%, the “Max. effect Emax (% ± SEM)” value was 78 ± 0% and the “Time of peak protection” value is listed as 1 h. This molecule showed a hA2AAR % inhibition at hA2AAR of 8 ± 3%.
On to `CNC(=O)[C@]12CC1[C@@H](n1cnc3c(NC)nc(-n4cc(-c5cnn(C)c5)nn4)nc31)[C@H](O)C2O` (some centres unmarked) [Compound 106], for which the hA1AR % inhibition at hA1AR was found to be 2 ± 2%. In addition, the affinity on hA3AR corresponds to a Ki of 2.16 ± 0.32 nM. Besides, in experiment [1], the “Effect at 3 h (% ± SEM)” value was 22 ± 7%, the “Max. effect Emax (% ± SEM)” value was 85 ± 5% and the “Time of peak protection” value is reported as 1 h. The molecule further yielded a hA2AAR % inhibition at hA2AAR of 1 ± 1%.
In turn, `CNC(=O)[C@]12CC1[C@@H](n1cnc3c(NC)nc(-n4cc(-c5ccco5)nn4)nc31)[C@H](O)C2O` (some centres unmarked) [Compound 107] had a Ki at hA3AR of 0.96 ± 0.09 nM. Moreover, in experiment [1], the “Effect at 3 h (% ± SEM)” value came to 21 ± 7%, the “Max. effect Emax (% ± SEM)” value turned out to be 65 ± 8% and the “Time of peak protection” value came out at 1 h. Moreover, the hA2AAR % inhibition on hA2AAR is on record as 51 ± 1%.
`CNC(=O)[C@]12CC1[C@@H](n1cnc3c(NC)nc(-n4cc(-c5cc6ccccc6o5)nn4)nc31)[C@H](O)C2O` (some centres unmarked) [Compound 108]: the hA1AR % inhibition at hA1AR is on record as 12 ± 7%. The Ki at hA3AR came out at 1.25 ± 0.27 nM. In experiment [1], the “Effect at 3 h (% ± SEM)” value is on record as 8 ± 8%, the “Max. effect Emax (% ± SEM)” value is reported as 55 ± 6% and the “Time of peak protection” value is recorded as 1 h. Moreover, the hA2AAR % inhibition on hA2AAR stood at 40 ± 6%.
The molecule `CNC(=O)[C@]12CC1[C@@H](n1cnc3c(NC)nc(-n4cc(-c5ccc(Br)s5)nn4)nc31)[C@H](O)C2O` (some centres unmarked) [Compound 111] showed a Ki at hA3AR of 0.58 ± 0.17 nM. Also, in experiment [1], the “Effect at 3 h (% ± SEM)” value is 14 ± 2%, the “Max. effect Emax (% ± SEM)” value came out at 69 ± 9% and the “Time of peak protection” value turned out to be 1 h. The molecule also yielded a hA2AAR % inhibition on hA2AAR of 7 ± 6%.
At hA1AR, `CNC(=O)[C@]12CC1[C@@H](n1cnc3c(NCCc4ccccc4)nc(N=[N+]=[N-])nc31)[C@H](O)C2O` (some centres unmarked) [Compound 117] gave a hA1AR % inhibition of 93%. The molecule further gave a Ki on hA3AR of 0.85 ± 0.1 nM. At hA2AAR, this molecule had a hA2AAR % inhibition of 71%.
Take `CNC(=O)[C@]12CC1[C@@H](n1cnc3c(NCCc4ccccc4)nc(I)nc31)[C@H](O)C2O` (some centres unmarked) [Compound 119]: at hA1AR, the hA1AR % inhibition turned out to be 68%. Also, affinity on hA3AR was put at a Ki of 0.91 ± 0.14 nM.
`CNC(=O)[C@]12CC1[C@@H](n1cnc3c(NCCc4ccccc4)nc(-n4cc(-c5ccc(Cl)s5)nn4)nc31)[C@H](O)C2O` (some centres unmarked) [Compound 121] came in with a hA1AR % inhibition on hA1AR of 58%. In addition, the Ki at hA3AR amounted to 6.66 ± 2.07 nM. For the same molecule, in experiment [1], the “Effect at 3 h (% ± SEM)” value is 80%, the “Max. effect Emax (% ± SEM)” value stood at 90% and the “Time of peak protection” value was in the range of 0.5 to 3 h.
The molecule `CCNc1nc(N=[N+]=[N-])nc2c1ncn2[C@@H]1C2C[C@]2(C(=O)NC)C(O)[C@H]1O` (some centres unmarked) [Compound 123] came in with a Ki at hA3AR of 0.6 ± 0.08 nM. This molecule came in with a hA2AAR % inhibition at hA2AAR of 11 ± 6%.
`CNC(=O)[C@]12CC1[C@@H](n1cnc3c(NCc4cccc(Cl)c4)nc(N=[N+]=[N-])nc31)[C@H](O)C2O` (some centres unmarked) [Compound 124]: the values for the Ki at hA3AR and at hA2AAR were 1.08 ± 0.75 nM and 2770 nM, respectively.
Consider `CNC(=O)[C@]12CC1[C@@H](n1cnc3cnc(C#Cc4ccccc4)nc31)[C@H](O)C2O` (some centres unmarked) [Compound 402], for which the hA1AR % inhibition at hA1AR is 28 ± 4%. Also, the Ki at hA3AR was 1.51 ± 0.41 nM; at hA2AAR it was 1200 nM.

The values are drawn from patent US10577368B2 (The United States of America, as represented by the …, priority 2013, dated 2020).
